One assay has as its target RET tyrosine kinase (Homo sapiens (Human), UniProt P07949). Kind of assay: Assay of small molecular compounds for inhibiting the activity of RET kinase (LANCE TR-FRET).
Another assay concerns the target VEGFR2 tyrosine kinase (Homo sapiens (Human), UniProt P35968). Kind of assay: Assay of small molecular compounds for inhibiting the activity of VEGFR-2 kinase (LANCE TR-FRET). On the technique in general: Time-resolved FRET reads energy transfer from a long-lived donor to a nearby acceptor.

Read-outs that look alike come from different tables or passages of the source.

RET tyrosine kinase, sequence (P07949 29-1114): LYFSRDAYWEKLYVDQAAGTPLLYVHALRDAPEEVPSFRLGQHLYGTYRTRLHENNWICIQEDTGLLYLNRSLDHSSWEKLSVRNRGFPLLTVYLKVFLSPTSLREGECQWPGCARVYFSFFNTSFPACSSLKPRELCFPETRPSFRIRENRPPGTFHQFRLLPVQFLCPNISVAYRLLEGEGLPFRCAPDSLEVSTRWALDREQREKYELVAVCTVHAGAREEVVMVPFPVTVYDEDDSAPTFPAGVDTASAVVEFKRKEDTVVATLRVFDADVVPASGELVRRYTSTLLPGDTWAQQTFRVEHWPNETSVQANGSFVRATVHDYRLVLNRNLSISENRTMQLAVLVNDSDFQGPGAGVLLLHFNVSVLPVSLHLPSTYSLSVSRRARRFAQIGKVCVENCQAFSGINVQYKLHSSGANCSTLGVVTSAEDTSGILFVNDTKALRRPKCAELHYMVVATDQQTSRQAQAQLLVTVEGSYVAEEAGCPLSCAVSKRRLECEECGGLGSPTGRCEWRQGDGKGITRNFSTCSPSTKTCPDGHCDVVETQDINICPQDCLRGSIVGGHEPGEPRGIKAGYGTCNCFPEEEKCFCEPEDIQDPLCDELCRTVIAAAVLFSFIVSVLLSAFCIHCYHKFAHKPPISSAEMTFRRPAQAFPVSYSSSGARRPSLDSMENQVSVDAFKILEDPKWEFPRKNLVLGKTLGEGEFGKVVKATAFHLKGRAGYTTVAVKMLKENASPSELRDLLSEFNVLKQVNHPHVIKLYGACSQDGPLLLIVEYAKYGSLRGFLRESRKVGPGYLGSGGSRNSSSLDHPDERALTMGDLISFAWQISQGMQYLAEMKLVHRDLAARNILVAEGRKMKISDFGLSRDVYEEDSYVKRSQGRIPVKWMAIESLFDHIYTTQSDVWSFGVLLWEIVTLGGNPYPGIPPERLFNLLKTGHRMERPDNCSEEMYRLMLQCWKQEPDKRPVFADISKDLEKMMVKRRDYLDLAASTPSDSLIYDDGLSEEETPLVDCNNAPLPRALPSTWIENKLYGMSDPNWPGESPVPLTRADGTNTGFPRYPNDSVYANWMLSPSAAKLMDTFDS
VEGFR2 tyrosine kinase, sequence (P35968 20-1356): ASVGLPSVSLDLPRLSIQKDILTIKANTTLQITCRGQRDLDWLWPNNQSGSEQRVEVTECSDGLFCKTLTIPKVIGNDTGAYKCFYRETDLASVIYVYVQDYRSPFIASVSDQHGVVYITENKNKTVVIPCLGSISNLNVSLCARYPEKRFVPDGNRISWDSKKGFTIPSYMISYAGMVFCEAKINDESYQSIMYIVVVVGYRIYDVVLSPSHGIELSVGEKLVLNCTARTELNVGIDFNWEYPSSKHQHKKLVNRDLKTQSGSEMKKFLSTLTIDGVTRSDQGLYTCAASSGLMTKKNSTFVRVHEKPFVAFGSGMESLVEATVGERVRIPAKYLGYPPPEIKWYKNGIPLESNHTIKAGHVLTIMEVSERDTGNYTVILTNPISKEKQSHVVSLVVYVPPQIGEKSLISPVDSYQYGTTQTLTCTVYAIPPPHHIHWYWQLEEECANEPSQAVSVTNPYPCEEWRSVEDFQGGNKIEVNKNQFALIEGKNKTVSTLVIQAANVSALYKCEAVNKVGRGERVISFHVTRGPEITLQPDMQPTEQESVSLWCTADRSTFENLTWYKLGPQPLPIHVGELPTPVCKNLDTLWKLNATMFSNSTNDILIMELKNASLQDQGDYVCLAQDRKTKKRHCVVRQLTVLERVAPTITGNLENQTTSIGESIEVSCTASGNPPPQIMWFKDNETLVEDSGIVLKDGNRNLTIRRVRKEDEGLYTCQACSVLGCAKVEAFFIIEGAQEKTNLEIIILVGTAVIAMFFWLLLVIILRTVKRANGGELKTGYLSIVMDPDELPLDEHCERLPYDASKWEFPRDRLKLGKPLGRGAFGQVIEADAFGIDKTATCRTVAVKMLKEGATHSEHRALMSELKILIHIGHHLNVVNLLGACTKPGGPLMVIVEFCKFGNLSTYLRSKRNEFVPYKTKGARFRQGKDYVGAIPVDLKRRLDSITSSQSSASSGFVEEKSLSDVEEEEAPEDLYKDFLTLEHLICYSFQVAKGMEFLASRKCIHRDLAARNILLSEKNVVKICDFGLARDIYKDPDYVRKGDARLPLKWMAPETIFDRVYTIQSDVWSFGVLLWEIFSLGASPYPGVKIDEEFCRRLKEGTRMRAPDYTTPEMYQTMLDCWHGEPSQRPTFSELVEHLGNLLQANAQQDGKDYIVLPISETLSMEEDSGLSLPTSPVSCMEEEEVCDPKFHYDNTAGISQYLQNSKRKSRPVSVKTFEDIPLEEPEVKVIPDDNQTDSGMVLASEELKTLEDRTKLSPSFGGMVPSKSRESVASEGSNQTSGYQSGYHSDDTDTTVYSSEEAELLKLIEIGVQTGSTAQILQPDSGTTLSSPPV
Procedure for RET tyrosine kinase: (§1) The assay is based on the LANCE TR-FRET technology of Perkin Elmer Inc., and the assay method is as follows:
(§2) 2.5 μL of the gradient-diluted compounds were taken with a transfer pipette to a 384-well plate.
Addition of enzyme: 5 μL of 2× RET kinase solution (concentration was 0.8 nM) was taken with a transfer pipette to the corresponding reaction well of the 384-well plate, mixed well and pre-reacted at room temperature for 30 minutes.
2.5 μL 4× Ultra ULight™-JAK-1 (Tyr1023) Peptide (concentration was 200 nM)/ATP (concentration was 40 μM) mixture was taken with a transfer pipette to the corresponding reaction well of the 384-well plate.
(§3) The final concentration of DMSO in the reaction system was 4%.
(§4) The mixture was mixed well and then centrifuged and reacted at room temperature in dark for 60 min.
(§5) The 384-well plate was placed into the Envision plate reader and the signal was detected using the appropriate program.
Procedure for VEGFR2 tyrosine kinase: as §1, §2
Addition of enzyme: 5 μL of 2× VEGFR2 kinase solution (concentration was 0.5 nM) was taken with a transfer pipette to the corresponding reaction well of the 384-well plate, mixed well and pre-reacted at room temperature for 30 minutes.
2.5 μL 4× Ultra ULight™-JAK-1 (Tyr1023) Peptide (concentration was 200 nM)/ATP (concentration was 40 μMM) mixture was taken with a transfer pipette to the corresponding reaction well of the 384-well plate.
Negative control: 2.5 μL/well 4× substrate/ATP mixture and 7.5 μL 1× Kinase Assay Buffer were added to the wells of the 384-well plate.
as §3, §4, §5

By IC50 is commonly meant the midpoint of a concentration-inhibition curve. Regarding `COc1cc2nccc(Oc3ccc(NC(=O)Nc4ccc(Cl)c(C(F)(F)F)c4)cc3)c2c2c1OCCO2` [Example 1, 1-(4-chloro-3-(trifluoromethyl)phenyl)-3-(4-((5-methoxy-2,3-dihydro-[1,4]dioxino[2,3-f]quinolin-10-yl)oxy)phenyl)urea], the IC50 at RET tyrosine kinase (read-out: RET IC50) and on VEGFR2 tyrosine kinase (read-out: VEGFR-2 IC50) was < 0.05 µM in each case.
In the case of `COc1cc2nccc(Oc3ccc(NC(=O)Nc4ccc(Cl)c(C(F)(F)F)c4)cc3F)c2c2c1OCCO2` [Example 5, 1-(4-chloro-3-(trifluoromethyl)phenyl)-3-(3-fluoro-4-((5-methoxy-2,3-dihydro-[1,4]dioxino[2,3-f]quinolin-10-yl)oxy)phenyl)urea], the IC50 at RET tyrosine kinase (read-out: RET IC50) is < 0.05 µM; on VEGFR2 tyrosine kinase (read-out: VEGFR-2 IC50), 0.05 to 0.5 µM.
Turning to `COc1cc2nccc(Oc3ccc(NC(=O)NC4CC4)c(Cl)c3)c2c2c1OCCO2` [Example 7, 1-(2-chloro-4-((5-methoxy-2,3-dihydro-[1,4]dioxino[2,3-f]quinolin-10-yl)oxy)phenyl)-3-cyclopropylurea], the IC50 against RET tyrosine kinase and on VEGFR2 tyrosine kinase was < 0.05 µM each time.
With `O=C(Nc1ccc(Oc2ccnc3cc(OCCO)c4c(c23)OCCO4)cc1)Nc1ccc(Cl)c(C(F)(F)F)c1` [Example 14, 1-(4-chloro-3-(trifluoromethyl)phenyl)-3-(4-((5-(2-hydroxyethoxy)-2,3-dihydro-[1,4]dioxino[2,3-f]quinolin-10-yl)oxy)phenyl)urea], the IC50 at RET tyrosine kinase (read-out: RET IC50) and on VEGFR2 tyrosine kinase (read-out: VEGFR-2 IC50) was < 0.05 µM in each case.
With `CN(C)CCCOc1cc2nccc(Oc3ccc(NC(=O)Nc4ccc(Cl)c(C(F)(F)F)c4)cc3)c2c2c1OCCO2` [Example 17, 1-(4-chloro-3-(trifluoromethyl)phenyl)-3-(4-((5-(3-(dimethylamino)propoxy)-2,3-dihydro-[1, 4]dioxino[2,3-f]quinolin-10-yl)oxy)phenyl)urea], the IC50 on RET tyrosine kinase (read-out: RET IC50) and at VEGFR2 tyrosine kinase (read-out: VEGFR-2 IC50) was < 0.05 µM in each case.
In the case of `O=C(Nc1ccc(Oc2ccnc3cc(OCCCN4CCCC4)c4c(c23)OCCO4)cc1)Nc1ccc(Cl)c(C(F)(F)F)c1` [Example 18, 1-(4-chloro-3-(trifluoromethyl)phenyl)-3-(4-((5-(3-(pyrrolidin-1-yl)propoxy)-2,3-dihydro-[1,4]dioxino[2,3-f]quinolin-10-yl)oxy)phenyl)urea], the IC50 at RET tyrosine kinase (read-out: RET IC50) and at VEGFR2 tyrosine kinase (read-out: VEGFR-2 IC50) was < 0.05 µM throughout.
Regarding `O=C(Nc1ccc(Oc2ccnc3cc(OCCCN4CCCCC4)c4c(c23)OCCO4)cc1)Nc1ccc(Cl)c(C(F)(F)F)c1` [Example 19, 1-(4-chloro-3-(trifluoromethyl)phenyl)-3-(4-((5-(3-(piperidin-1-yl)propoxy)-2,3-dihydro-[1,4]dioxino[2,3-f]quinolin-10-yl)oxy)phenyl)urea], on VEGFR2 tyrosine kinase (read-out: VEGFR-2 IC50), the IC50 is < 0.05 µM.
Take `CN1CCN(CCCOc2cc3nccc(Oc4ccc(NC(=O)Nc5ccc(Cl)c(C(F)(F)F)c5)cc4)c3c3c2OCCO3)CC1` [Example 21, 1-(4-chloro-3-(trifluoromethyl)phenyl)-3-(4-((5-(3-(4-methylpiperazin-1-yl)propoxy)-2,3-dihydro-[1,4]dioxino[2,3-f]quinolin-10-yl)oxy)phenyl)urea]: the IC50 at RET tyrosine kinase (read-out: RET IC50) and at VEGFR2 tyrosine kinase (read-out: VEGFR-2 IC50) was < 0.05 µM each time.
In the case of `CC1(O)CCN(CCCOc2cc3nccc(Oc4ccc(NC(=O)Nc5ccc(Cl)c(C(F)(F)F)c5)cc4)c3c3c2OCCO3)CC1` [Example 25, 1-(4-chloro-3-(trifluoromethyl)phenyl)-3-(4-((5-(3-(4-hydroxy-4-methylpiperidin-1-yl)propoxy)-2,3-dihydro-[1,4]dioxino[2,3-f]quinolin-10-yl)oxy)phenyl)urea], the IC50 on RET tyrosine kinase (read-out: RET IC50) and at VEGFR2 tyrosine kinase (read-out: VEGFR-2 IC50) was < 0.05 µM in each case.
Turning to `CC1(N)CCN(CCCOc2cc3nccc(Oc4ccc(NC(=O)Nc5ccc(Cl)c(C(F)(F)F)c5)cc4)c3c3c2OCCO3)CC1` [Example 26, 1-(4-((5-(3-(4-amino-4-methylpiperidin-1-yl)propoxy)-2,3-dihydro-[1,4]dioxino[2,3-f]quinolin-10-yl)oxy)phenyl)-3-(4-chloro-3-(trifluoromethyl)phenyl)urea], the IC50 at RET tyrosine kinase (read-out: RET IC50) and at VEGFR2 tyrosine kinase (read-out: VEGFR-2 IC50) was < 0.05 µM throughout.
For the molecule `COCCN(C)CCCOc1cc2nccc(Oc3ccc(NC(=O)Nc4ccc(Cl)c(C(F)(F)F)c4)cc3)c2c2c1OCCO2` [Example 27, 1-(4-chloro-3-(trifluoromethyl)phenyl)-3-(4-((5-(3-((2-methoxyethyl)(methyl)amino)propoxy)-2,3-dihydro-[1,4]dioxino[2,3-f]quinolin-10-yl)oxy)phenyl)urea], the IC50 was < 0.05 µM on RET tyrosine kinase (read-out: RET IC50) and 0.05 to 0.5 µM at VEGFR2 tyrosine kinase.
The like results for `CN(C)CCCCCCOc1cc2nccc(Oc3ccc(NC(=O)Nc4ccc(Cl)c(C(F)(F)F)c4)cc3)c2c2c1OCCO2` [Example 30, 1-(4-chloro-3-(trifluoromethyl)phenyl)-3-(4-((5-((6-(dimethylamino)hexyl)oxy)-2,3-dihydro-[1,4]dioxino[2,3-f]quinolin-10-yl)oxy)phenyl)urea] were, in that order, < 0.05 µM and 0.05 to 0.5 µM.
In the case of `O=C(Nc1ccc(Cl)c(C(F)(F)F)c1)Nc1ccc(Oc2ccnc3cc(OCCCN4CCOCC4)c4c(c23)OCCO4)cc1F` [Example 42, 1-(4-chloro-3-(trifluoromethyl)phenyl)-3-(2-fluoro-4-((5-(3-morpholinopropoxy)-2,3-dihydro-[1,4]dioxino[2,3-f]quinolin-10-yl)oxy)phenyl)urea], the IC50 on RET tyrosine kinase (read-out: RET IC50) was < 0.05 µM.
Consider `CCOc1cc2nccc(Oc3ccc(NC(=O)NC4CC4)c(Cl)c3)c2c2c1OCCO2` [Example 43, 1-(2-chloro-4-((5-ethoxy-2,3-dihydro-[1,4]dioxino[2,3-f]quinolin-10-yl)oxy)phenyl)-3-cyclopropylurea], for which the IC50 at RET tyrosine kinase (read-out: RET IC50) and at VEGFR2 tyrosine kinase (read-out: VEGFR-2 IC50) was < 0.05 µM each time.
In the case of `CC(C)Oc1cc2nccc(Oc3ccc(NC(=O)NC4CC4)c(Cl)c3)c2c2c1OCCO2` [Example 44, 1-(2-chloro-4-((5-isopropoxy-2,3-dihydro-[1,4]dioxino[2,3-f]quinolin-10-yl)oxy)phenyl)-3-cyclopropylurea], the IC50 at RET tyrosine kinase (read-out: RET IC50) is < 0.05 µM.
Still for that read-out and setting: with `CC(C)COc1cc2nccc(Oc3ccc(NC(=O)NC4CC4)c(Cl)c3)c2c2c1OCCO2` [Example 45, 1-(2-chloro-4-((5-isobutoxy-2,3-dihydro-[1,4]dioxino[2,3-f]quinolin-10-yl)oxy)phenyl)-3-cyclopropylurea] the figure was < 0.05 µM.
Take `O=C(Nc1ccc(Oc2ccnc3cc(OCC4CC4)c4c(c23)OCCO4)cc1Cl)NC1CC1` [Example 46, 1-(2-chloro-4-((5-(cyclopropylmethoxy)-2,3-dihydro-[1,4]dioxino[2,3-f]quinolin-10-yl)oxy)phenyl)-3-cyclopropylurea]: the 50% inhibitory concentration (IC50) on RET tyrosine kinase (read-out: RET IC50) and on VEGFR2 tyrosine kinase (read-out: VEGFR-2 IC50) was < 0.05 µM in each case.
Turning to `N#CCOc1cc2nccc(Oc3ccc(NC(=O)NC4CC4)c(Cl)c3)c2c2c1OCCO2` [Example 47, 1-(2-chloro-4-((5-(cyanomethoxy)-2,3-dihydro-[1,4]dioxino[2,3-f]quinolin-10-yl)oxy)phenyl)-3-cyclopropylurea], the IC50 on RET tyrosine kinase (read-out: RET IC50) and at VEGFR2 tyrosine kinase (read-out: VEGFR-2 IC50) was < 0.05 µM throughout.
For `O=C(Nc1ccc(Oc2ccnc3cc(OCCO)c4c(c23)OCCO4)cc1Cl)NC1CC1` [Example 48, 1-(2-chloro-4-((5-(2-hydroxyethoxy)-2,3-dihydro-[1,4]dioxino[2,3-f]quinolin-10-yl)oxy)phenyl)-3-cyclopropylurea], the IC50 at RET tyrosine kinase (read-out: RET IC50) and at VEGFR2 tyrosine kinase (read-out: VEGFR-2 IC50) was < 0.05 µM each time.
For `O=C(Nc1ccc(Oc2ccnc3cc(OC4COC4)c4c(c23)OCCO4)cc1Cl)NC1CC1` [Example 65, 1-(2-chloro-4-((5-(oxetan-3-yloxy)-2,3-dihydro-[1,4]dioxino[2,3-f]quinolin-10-yl)oxy)phenyl)-3-cyclopropylurea], the IC50 on RET tyrosine kinase (read-out: RET IC50) was < 0.05 µM.
As to `COc1cc2nccc(Oc3ccc(NC(=O)NC4CCC4)c(Cl)c3)c2c2c1OCCO2` [Example 68, 1-(2-chloro-4-((5-methoxy-2,3-dihydro-[1,4]dioxino[2,3-f]quinolin-10-yl)oxy)phenyl)-3-cyclobutylurea], the IC50 on RET tyrosine kinase (read-out: RET IC50) was < 0.05 µM.
In the case of `COc1cc2nccc(Oc3ccc(NC(=O)NC4CCCC4)c(Cl)c3)c2c2c1OCCO2` [Example 69, 1-(2-chloro-4-((5-methoxy-2,3-dihydro-[1,4]dioxino[2,3-f]quinolin-10-yl)oxy)phenyl)-3-cyclopentylurea], the half-inhibitory concentration (IC50) on RET tyrosine kinase (read-out: RET IC50) was < 0.05 µM.
Turning to `COCCOc1cc2nccc(Oc3ccc(NC(=O)NC4CCCC4)c(Cl)c3)c2c2c1OCCO2` [Example 71, 1-(2-chloro-4-((5-(2-methoxyethoxy)-2,3-dihydro-[1,4]dioxino[2,3-f]quinolin-10-yl)oxy)phenyl)-3-cyclopentylurea], the IC50 on RET tyrosine kinase was < 0.05 µM.
Take `COCCCOc1cc2nccc(Oc3ccc(NC(=O)NC4CCCC4)c(Cl)c3)c2c2c1OCCO2` [Example 73, 1-(2-chloro-4-((5-(3-methoxypropoxy)-2,3-dihydro-[1,4]dioxino[2,3-f]quinolin-10-yl)oxy)phenyl)-3-cyclopentylurea]: the 50% inhibitory concentration (IC50) against RET tyrosine kinase lay in the range of 0.05 to 0.5 µM.
Still for that read-out and setting: the result for `O=C(Nc1ccc(Oc2ccnc3cc(OCCCN4CCOCC4)c4c(c23)OCCO4)cc1Cl)NC1CCCC1` [Example 75, 1-(2-chloro-4-((5-(3-morpholinopropoxy)-2,3-dihydro-[1,4]dioxino[2,3-f]quinolin-10-yl)oxy)phenyl)-3-cyclopentylurea] reads < 0.05 µM.
Regarding `O=C(Nc1ccc(Oc2ccnc3cc(OCCCN4CCOCC4)c4c(c23)OCCO4)cc1)Nc1cc(C(F)(F)F)ccc1F` [Example 76, 1-(2-fluoro-5-(trifluoromethyl)phenyl)-3-(4-((5-(3-morpholinopropoxy)-2,3-dihydro-[1,4]dioxino[2,3-f]quinolin-10-yl)oxy)phenyl)urea], the IC50 at RET tyrosine kinase (read-out: RET IC50) was < 0.05 µM.
Consider `COc1cc2nccc(Oc3ccc(NC(=O)NC(C)C)c(Cl)c3)c2c2c1OCCO2` [Example 82, 1-(2-chloro-4-((5-methoxy-2,3-dihydro-[1,4]dioxino[2,3-f]quinolin-10-yl)oxy)phenyl)-3-isopropylurea], for which the 50% inhibitory concentration (IC50) at RET tyrosine kinase (read-out: RET IC50) was < 0.05 µM.
`COc1cc2nccc(Oc3ccc(NC(=O)NCC(C)C)c(Cl)c3)c2c2c1OCCO2` [Example 83, 1-(2-chloro-4-((5-methoxy-2,3-dihydro-[1,4]dioxino[2,3-f]quinolin-10-yl)oxy)phenyl)-3-isobutylurea] had a concentration for half-maximal inhibition (IC50) against RET tyrosine kinase of 0.05 to 0.5 µM.

Source of the values: patent publication US11479559B2, “Urea-substituted aromatic ring-linked dioxinoquinoline compounds, preparation method and uses thereof” (BEIJING SCITECH-MQ PHARMACEUTICALS LIMITED, priority 2018, dated 2022).
